{"source": "paper PMC11930985", "about": "(Nature Communications, 2025)", "key": {"AML/MDS patients": {"test_system": "AML/MDS patients", "procedure": "Safety assessments including standard clinical laboratory safety tests (hematology, biochemistry, coagulation, and urinalysis), physical examinations, vital signs (blood pressure, heart rate, respiration rate and temperature), and ECOG performance status were performed at baseline and throughout the study. Electrocardiograms were obtained at screening, Cycle 1 Day 1–4, 8, and 15, Cycle 2 Day 1, 8 and 15, at Day 1 of each cycle thereafter, (up to and including Cycle 15), and at Final Study Visit. QT prolongation was assessed using the Fridericia correction […] [34]. Severity of QTcF prolongation was defined as follows: Grade 1: maximum prolongation 450–480 ms; Grade 2: maximum prolongation 481-500 ms; Grade 3: ≥501 ms on at least two separate ECGs; Grade 4: ≥501 ms or >60 ms change from baseline, with Torsades de pointes, polymorphic ventricular tachycardia or signs/symptoms of serious arrythmia; Grade 5: Death.\nAdverse events (AEs) were monitored starting at study enrolment until 28 days after end of treatment and graded according to the National Cancer Institute Common Terminology Criteria for Adverse Events (NCI-CTCAE) version 4.0. If drug-related toxicities continued beyond the follow-up period, patients were followed until all drug-related toxicities resolved to grade ≤1, stabilized or returned to baseline."}, "CYP3A4": {"test_system": "CYP3A4", "parameters": "method as in Investigator's Brochure (IB) version 5.0", "conditions": "preliminary results; ref Investigator's Brochure (IB) version 5.0; cited from earlier work"}, "AML patients": {"test_system": "AML patients", "conditions": "cited from earlier work; for Remissions (CR and CRi), patients: patients not eligible for intensive chemotherapy"}}, "note": "Read-outs that look alike come from different tables or passages of the source."}
{"molecule": "Nc1ccn([C@@H]2O[C@H](CO)[C@@H](O)[C@@H]2O)c(=O)n1", "note": "[Cytarabine, reference compound]", "values": [{"measurement": "Patients with cytarabine dose-reduced", "setting": "AML/MDS patients; LDAC cohorts", "value": 4}, {"measurement": "Patients with cytarabine interrupted", "setting": "AML/MDS patients; human, in vivo", "value": 8}, {"measurement": "Patients with cytarabine withdrawn", "setting": "AML/MDS patients; human, in vivo", "value": 1}, {"measurement": "Extensive metabolism by CYP3A4", "setting": "CYP3A4", "value": "does not"}, {"measurement": "Response rate", "setting": "AML patients; R/R-AML", "value": "< 20", "unit": "%"}, {"measurement": "Remissions (CR and CRi), patients", "setting": "AML patients", "value": "less than 35%"}]}
{"molecule": "Nc1ncn([C@@H]2O[C@H](CO)[C@@H](O)[C@H]2O)c(=O)n1", "note": "[azacitidine]", "values": [{"measurement": "Remissions (CR and CRi), patients", "setting": "AML patients", "value": "less than 35%"}]}
{"molecule": "Nc1ncn([C@H]2C[C@H](O)[C@@H](CO)O2)c(=O)n1", "note": "[decitabine]", "values": [{"measurement": "Remissions (CR and CRi), patients", "setting": "AML patients", "value": "less than 35%"}]}
{"molecule": "CC1(C)CCC(CN2CCN(c3ccc(C(=O)NS(=O)(=O)c4ccc(NCC5CCOCC5)c([N+](=O)[O-])c4)c(Oc4cnc5[nH]ccc5c4)c3)CC2)=C(c2ccc(Cl)cc2)C1", "note": "[venetoclax]", "values": [{"measurement": "Response rate", "setting": "AML patients; HMA or LDAC plus venetoclax, venetoclax-naïve R/R-AML", "value": 31, "unit": "%"}, {"measurement": "Response rates", "setting": "AML patients; venetoclax added to less-intensive regimens (HMAs or LDAC), frontline", "value": "60–75%"}]}
